# Measurements: patent publication US20170014360A1, “METHODS OF TREATING CANCER USING RAD51 SMALL MOLECULE STIMULATORS” (The University of Chicago, priority 2014, published 2017)
# Key:
# [1] = target: T1, purified human RAD51 protein (Homo sapiens, UniProt Q06609); test: Measurement of RAD51 binding to DNA by fluorescence polarization; conditions: 75 nM RAD51, various concentrations of RS-1, 100 nM DNA substrate
# T1 sequence (Q06609 1-339): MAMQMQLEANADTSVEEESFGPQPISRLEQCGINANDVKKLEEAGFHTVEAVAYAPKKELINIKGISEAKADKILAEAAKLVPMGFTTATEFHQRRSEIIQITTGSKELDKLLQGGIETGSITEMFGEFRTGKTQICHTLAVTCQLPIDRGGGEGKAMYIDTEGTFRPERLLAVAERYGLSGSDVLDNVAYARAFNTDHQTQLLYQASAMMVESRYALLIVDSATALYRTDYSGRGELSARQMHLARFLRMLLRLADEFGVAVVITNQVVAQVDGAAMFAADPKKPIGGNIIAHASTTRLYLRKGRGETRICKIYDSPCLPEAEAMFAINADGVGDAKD
# Protocol: Various concentrations of RS-1 were incubated with purified hRAD51 protein and a fluorescently tagged DNA substrate, consisting of either a ssDNA oligonucleotide (DHD162-CD-CF) or a dsDNA double hairpin (DHD162). Binding of RAD51 to DNA was measured as a function of fluorescence polarization of the tag, as described in the methods section.
# Experiments were performed as previously described with some modifications (Budke, et al., 2012). Briefly, 75 nM purified human RAD51 protein was incubated with various concentrations of RS-1 in FP reaction buffer at 37° C. for 40 minutes. FP reaction buffer consisted of 20 mM Hepes pH 7.5, 10 mM MgCl2, 0.25 μM BSA, 2% glycerol, 30 mM NaCl, 4% DMSO, 0.1 mM tris(2-carboxyethyl)phosphine (TCEP), and 2 mM ATP. Fluorescently tagged DNA substrate was then added to a final concentration of 100 nM (nucleotide concentration for ssDNA or base pair concentration for dsDNA) and incubated at 37° C. for another 40 minutes. DNA substrates consisted of either an Alexa Fluor 488-labeled oligo-dT 45-mer, a fluorescein-labeled ssDNA oligonucleotide (DHD162-CD-CF), or a fluorescein-labeled dsDNA double hairpin (DHD162) which were previously described (Budke, et al., 2013). Fluorescence polarization measurements were obtained as previously described (Budke, et al., 2012). […]
# [2] = tested on: PC3 prostate cancer cells; test: Immunofluorescence microscopy to detect RAD51 and RPA foci in PC3 cells; type: cell-based, human
# Protocol: (§1) FIGS. 6A-6B. […] FIG. 6A: Cells were grown on cover slips, incubated for 6 hours in media containing 60 μM RS-1. In the 8 Gy radiation control condition, cells were irradiated 6 hours before harvest. Cells were subsequently indirectly immunostained. […] FIG. 6B: Fifty randomly selected nuclei per treatment group were examined and discrete foci were quantified.
# (§2) Some cancer cells that strongly overexpress RAD51 are known to develop spontaneous RAD51 nuclear complexes (Raderschall, et al., 2002). […] PC3 prostate cancer cells and normal primary human fibroblasts (MRC-5) were treated with RS-1 and examined by immunofluorescence microscopy. To determine whether RAD51-staining structures represented sites of DNA repair vs. non-damage-associated sites, nuclei were counterstained for RPA, which forms punctuate sub-nuclear foci specifically in response to DNA damage at sites that colocalize with damage-induced RAD51 foci (Golub, et al., 1998).
# (§3) Cells were grown on coverslips and treated with RS-1 or radiation as indicated. They were subsequently fixed with 3% paraformaldahyde/3.4% sucrose, and permeabilized with a standard buffer (20 mM HEPES pH 7.4, 0.5% TritonX-100, 50 mM NaCl, 3 mM MgCl2, 300 mM sucrose). […] Images were recorded at a single representative focal plane using a CCD camera. For each experimental condition, 50 randomly selected nuclei were quantified using NIH Image software.
# [3] = tested on: normal primary human fibroblasts (MRC-5); test: Immunofluorescence microscopy to detect RAD51 and RPA foci in MRC-5 cells; type: cell-based
# Protocol: as §1, §2, §3
# PC3 tumors = test: PC3 xenograft tumor model in athymic nude mice
# Protocol: FIG. 7. […] PC3 tumors were induced in the hind limbs of athymic nude mice. Mice were then randomized into two treatment groups. Starting on day 0, mice then received 5 daily intra-peritoneal injections with either RS-1 (110 mg/kg) or vehicle alone control. Median tumor volume is plotted, normalized to the starting tumor volume on day 0.
# An in-vivo tumor model was used to further test the concept of RAD51 stimulation as a cancer treatment. Subcutaneous xenograft PC3 tumors were induced in the hind limbs of athymic nude mice, and the mice were subsequently treated with daily intra-peritoneal injections of RS-1 for five consecutive days. The daily dose administered to the mice was designed to yield an idealized concentration of 300 μM within the aqueous compartment of a mouse, based on an assumption of homogenous distribution across a 21 gm animal that is composed of 70% water.
# Xenograft tumors were induced in the hind limbs of athymic nude mice by subcutaneous injection of 1×10^6 PC3 cells, and tumors were allowed to grow to an average volume of about 50 mm^3. Mice were then were randomized into treatment groups, each consisting of 7 mice. […] Tumor measurements were taken 3 times per week with a caliper and expressed as tumor volume, which was approximated from the product of width×length×height×0.5.
# HT1080 cells = test: Cell survival assay in HT1080 cells with doxycycline-repressible RAD51 transgene; type: cell-based, human; conditions: HT1080, RAD51 overexpression by doxycycline removal; 24 hours RS-1, 6 days drug-free
# Protocol: HT1080 cells carrying a doxycycline-repressible RAD51 transgene were pre-treated with varying levels of doxycycline for 24 hours. […] In lower panel, cells were subsequently incubated for 24 hours in media containing varying concentrations of RS-1. Cells were then allowed to grow in drug-free media for an additional 6 days, and indicated doxycycline concentrations were maintained throughout the entire experiment. Average survival for each condition is normalized to the 0 μM RS-1 control of that condition.
# (§4) Cells were plated into 96-well tissue culture plates at a density of 300 cells per well in the presence or absence of RS-1 for 24 hours at 37° C., 5% CO2. RS-1 was then removed, and cultures were allowed to grow for approximately one week to a 50-70% confluence. Average survival from six replicates was measured using CellGlo reagent (Promega), and error bars represent the standard error.
# To confirm that RS-1 toxicity is directly related to RAD51 and translocases protein levels, these proteins were experimentally manipulated in cells. First, RAD51 was overexpressed in human fibrosarcoma HT1080 cells carrying a doxycycline-repressible RAD51 transgene.
# PC3 cells = test: Cell survival assay in PC3 cells (with or without siRNA knockdown); type: cell-based, human
# Protocol: PC3 cells were treated with various concentrations of RAD51 siRNA for 48 hours. […] Following RNAi, cells were allowed to grow for 7 days and assayed for viability in the absence of additional treatment. FIG. 3B: Following RNAi, cells were incubated for 24 hours in media containing varying concentrations of RS-1. Cells were then allowed to grow in drug-free media for an additional 6 days. Average survival for each condition is normalized to the 0 μM RS-1 control of that condition.
# PC3 cells were treated with siRNA against RAD54L, RAD54B, both, or a non-silencing (NS) control for 48 hours. Following RNAi, cells were subsequently incubated for 24 hours in media containing varying concentrations of RS-1. Cells were then allowed to grow in RS-1-free media for an additional 6 days. Average survival for each condition is normalized to the 0 μM RS-1 control of that condition.
# as §4
# The RAD51 siRNA and the All-Stars negative control siRNA (NS) were ordered from Qiagen. RAD54B siRNAs were ordered from Invitrogen (Stealth). The RAD54L siRNA cocktail was ordered from Santa Cruz (sc-36362). All siRNAs were transfected using RNAiMax as per manufacturer's instructions (Invitrogen). Briefly, 2.0×10^5 cells were plated in 6 well dishes containing siRNA complexes to achieve the desired final concentration of siRNAs. The RAD54B and RAD54L siRNAs consisted of a cocktail of three independent siRNAs. The concentration of siRNAs transfected were 25 nM for RAD54L and 50 nM RAD54B. Co-depletion of RAD54L and RAD54B was performed by transfecting cells simultaneously with both siRNAs. At 48 hours post transfection, cells were harvested for cell survival assays and western blotting as described.
# RAD51 [4] = target: T2, RAD51 (Homo sapiens, UniProt Q06609); conditions: cited from earlier work
# T2 sequence (Q06609 1-339): T1 sequence (Q06609 1-339)
# RAD51 [5] = target: T2, RAD51; conditions: cited from earlier work; remark: listed apart in the source
# [6] = 110 mg/kg intra-peritoneal, 5 daily injections
smiles,measurement,setting,value
"O=C(Nc1ccc(Br)cc1)c1ccc(Br)c(S(=O)(=O)NCc2ccccc2)c1 [RS-1, 3-Benzylsulfamoyl-4-bromo-N-(4-bromo-phenyl)-benzamide]",binding of RAD51 to ssDNA and dsDNA,[1],stimulates the binding of RAD51 to both ssDNA and dsDNA
same,nuclei with >10 RAD51 foci/nucleus,"[2]; PC3, 60 μM RS-1, 6 hours, no DNA damage",43%
same,cells with >10 RPA foci/nucleus,"[2]; PC3, after RS-1 treatment",Neither cell type exhibited >10 RPA foci/nucleus in any cells
same,nuclei with >10 RAD51 foci/nucleus,"[3]; MRC-5, 60 μM RS-1, 6 hours",no MRCS nuclei exhibited >10 RAD51 foci/nucleus
same,cells with >10 RPA foci/nucleus,"[3]; MRC-5, after RS-1 treatment",Neither cell type exhibited >10 RPA foci/nucleus in any cells
same,anti-tumor response relative to vehicle-alone control,PC3 tumors; [6],significant anti-tumor responses
same,toxic deaths,PC3 tumors; [6],no toxic deaths observed
same,delay in tumor regrowth relative to vehicle-alone control,"PC3 tumors; 110 mg/kg intra-peritoneal, 5 daily injections, remaining tumors",> 2 week
same,tumors that completely disappeared after treatment and never regrew,"PC3 tumors; 110 mg/kg intra-peritoneal, 5 daily injections, two month observation, 3 of 7",43%
same,transient weight loss,"PC3 tumors; during the treatment week, regained post-treatment",about 10%
same,sensitivity to RS-1 of cells with the highest RAD51 expression levels,HT1080 cells,significantly more sensitive to RS-1
same,effect of RAD51 depletion on RS-1 induced toxicity,"PC3 cells; PC3, RAD51 siRNA 48 hours, then 24 hours RS-1",significant protection from RS-1 induced toxicity
same,LD90,"PC3 cells; PC3, relative to panel of cell lines",low LD90
same,effect of RAD54B or RAD54L knockdown on RS-1 toxicity,"PC3 cells; PC3, siRNA 48 hours, then 24 hours RS-1",significantly sensitized PC3 cells to RS-1 toxicity
same,protection of RAD51 filaments from high salt,RAD51 [4]; buffers containing high salt concentration,protects these filaments from buffers containing high salt concentration
same,RAD51 filament formation (further study),RAD51 [4],enhances RAD51 filament formation
same,DNA strand invasion activity of RAD51,RAD51 [5],capable of stimulating DNA strand invasion activity of RAD51
